Source: patent publication US9873918B2, “Treatment of acute myeloid leukemia and myelodysplastic syndromes” (Albert Einstein College of Medicine, Inc., priority 2011, dated 2018)

Experiments:
Assay in all cases: Colony formation (clonogenic) assay in methylcellulose after lentiviral IL1RAP shRNA knockdown
Format in all cases: cell-based, human
Settings in all cases: p<0.05
[1] = test system: HEL cells
Text: (§1) FIG. 18A-18B. IL1RAP knockdown decreases clonogenic potential and leads to increased cell death of AML cells. A) Colony formation assay in semisolid methylcellulose media of AML cells (THP-1, OCI-AML3, HEL, HL-60) infected with control and two IL1RAP-directed shRNAs. Mean and standard deviations are shown. Asterisks indicate statistical significance (p<0.05). B) Analysis of apoptosis/necrosis with Annexin V/DAPI in THP-1 cells infected with control and IL1RAP shRNAs. […] Statistical significance is indicated (* indicate p<0.05).
(§2) For knockdown studies, shRNA template oligonucleotides (Luciferase Control shRNA: 5′-[…]-3′ (SEQ ID NO:3); IL-1RAP shRNA 1: 5′-[…]-3′ (SEQ ID NO:4); IL-1RAP shRNA 2: 5′-[…]-3′) (SEQ ID NO:5) were cloned into the pSIH1-H1-copGFP shRNA vector system (System Biosciences, Mountain View, Calif.). For production of lentiviral particles, lentiviral constructs with packaging vectors were transfected into 293T producer cells using Fugene HD transfection reagent (Roche). Supernatant was harvested after 48 and 72 hours, and concentrated by ultracentrifugation. For knockdown studies, HL60, HEL, OCI-AML3, MOLM-13, THP1 and UT-7 cell lines were transfected with the short-hairpin-containing lentivirus (MOI=10), incubated for 48 or 72 hours. After culture with fresh medium, GFP-positive cells were sorted using a FACS Aria II sorter (BD Biosciences) and used for experiments. Level of knockdown of Il-1RAP was determined by flow cytometry.
(§3) THP1 cells were transduced with these lentiviral shRNAs or with a non-silencing control, and subjected sorted GFP-positive, Annexin V-negative, DAPI-negative cells to clonogenic assays. Knockdown of IL1RAP led to a significant (p<0.05) 94% and 98% inhibition of leukemic colony formation of THP1 cells in comparison to the non-silencing control (FIG. 18A).

[2] = test system: HL-60 cells
Text: as §1, §2, §3

[3] = test system: OCI-AML3 cells
Text: as §1, §2, §3

Row | Substance | reduced clonogenicity [1] [%] | reduced clonogenicity [2] [%] | reduced clonogenicity [3] [%]
1 | shRNA#1: IL1RAP-directed lentiviral shRNA, template 5′-tggccttactctgatctggtattggacta-3′ (SEQ ID NO:4), in pSIH1-H1-copGFP vector (DNA TGGCCTTACTCTGATCTGGTATTGGACTA) | 69 | 45 | 51.5
2 | shRNA#2: IL1RAP-directed lentiviral shRNA, template 5′-cgggcattaattgatttcctactatattc-3′ (SEQ ID NO:5), in pSIH1-H1-copGFP vector (DNA CGGGCATTAATTGATTTCCTACTATATTC) | 81 | 38.5 | 62
